{"source": "paper PMC5078040", "about": "(Oncotarget, 2016)", "key": {"[1]": {"target": "T1, ABL1(F317I)-nonphosphorylated (Homo sapiens, UniProt P00519, F317I)", "T1 construct": "purchased DiscoveRx KINOMEscan", "experiment": "KinomeScan", "format": "binding", "conditions": "1uM"}, "[2]": {"target": "T2, ABL1(F317L)-phosphorylated (Homo sapiens, UniProt P00519, F317L)", "T2 construct": "purchased DiscoveRx KINOMEscan", "experiment": "KinomeScan", "format": "binding", "conditions": "1uM"}, "[3]": {"target": "T3, ABL1(T315I)-phosphorylated (Homo sapiens, UniProt P00519, T315I)", "T3 construct": "purchased DiscoveRx KINOMEscan", "experiment": "KinomeScan", "format": "binding", "conditions": "1uM"}, "ABL1-nonphosphorylated": {"target": "T4, ABL1-nonphosphorylated (Homo sapiens, UniProt P00519)", "T4 construct": "purchased DiscoveRx KINOMEscan", "experiment": "KinomeScan", "format": "binding", "conditions": "1uM"}, "ALK(L1196M)": {"target": "T5, ALK(L1196M) (Homo sapiens, UniProt Q9UM73, L1196M)", "T5 construct": "purchased DiscoveRx KINOMEscan", "experiment": "KinomeScan", "format": "binding", "conditions": "1uM"}, "AMPK-alpha1": {"target": "T6, AMPK-alpha1 (Homo sapiens, UniProt Q13131)", "T6 construct": "purchased DiscoveRx KINOMEscan", "experiment": "KinomeScan", "format": "binding", "conditions": "1uM"}, "ASK2": {"target": "T7, ASK2 (Homo sapiens, UniProt O95382)", "T7 construct": "purchased DiscoveRx KINOMEscan", "experiment": "KinomeScan", "format": "binding", "conditions": "1uM"}, "BRAF(V600E)": {"target": "T8, BRAF(V600E) (Homo sapiens, UniProt P15056, V600E)", "T8 construct": "purchased DiscoveRx KINOMEscan", "experiment": "KinomeScan", "format": "binding", "conditions": "1uM"}, "CAMK2G": {"target": "T9, CAMK2G (Homo sapiens, UniProt Q13555)", "T9 construct": "purchased DiscoveRx KINOMEscan", "experiment": "KinomeScan", "format": "binding", "conditions": "1uM"}, "CAMKK2": {"target": "T10, CAMKK2 (Homo sapiens, UniProt Q96RR4)", "T10 construct": "purchased DiscoveRx KINOMEscan", "experiment": "KinomeScan", "format": "binding", "conditions": "1uM"}, "CDK9": {"target": "T11, CDK9 (Homo sapiens, UniProt P50750)", "T11 construct": "purchased DiscoveRx KINOMEscan", "experiment": "KinomeScan", "format": "binding", "conditions": "1uM"}, "CSNK1A1": {"target": "T12, CSNK1A1 (Homo sapiens, UniProt P48729)", "T12 construct": "purchased DiscoveRx KINOMEscan", "experiment": "KinomeScan", "format": "binding", "conditions": "1uM"}, "CSNK1D": {"target": "T13, CSNK1D (Homo sapiens, UniProt P48730)", "T13 construct": "purchased DiscoveRx KINOMEscan", "experiment": "KinomeScan", "format": "binding", "conditions": "1uM"}, "CSNK1G2": {"target": "T14, CSNK1G2 (Homo sapiens, UniProt P78368)", "T14 construct": "purchased DiscoveRx KINOMEscan", "experiment": "KinomeScan", "format": "binding", "conditions": "1uM"}, "CSNK1G3": {"target": "T15, CSNK1G3 (Homo sapiens, UniProt Q9Y6M4)", "T15 construct": "purchased DiscoveRx KINOMEscan", "experiment": "KinomeScan", "format": "binding", "conditions": "1uM"}, "DAPK1": {"target": "T16, DAPK1 (Homo sapiens, UniProt P53355)", "T16 construct": "purchased DiscoveRx KINOMEscan", "experiment": "KinomeScan", "format": "binding", "conditions": "1uM"}, "EGFR(G719C)": {"target": "T17, EGFR(G719C) (Homo sapiens, UniProt P00533, G719C)", "T17 construct": "purchased DiscoveRx KINOMEscan", "T17 sequence (P00533 25-1210 G719C)": "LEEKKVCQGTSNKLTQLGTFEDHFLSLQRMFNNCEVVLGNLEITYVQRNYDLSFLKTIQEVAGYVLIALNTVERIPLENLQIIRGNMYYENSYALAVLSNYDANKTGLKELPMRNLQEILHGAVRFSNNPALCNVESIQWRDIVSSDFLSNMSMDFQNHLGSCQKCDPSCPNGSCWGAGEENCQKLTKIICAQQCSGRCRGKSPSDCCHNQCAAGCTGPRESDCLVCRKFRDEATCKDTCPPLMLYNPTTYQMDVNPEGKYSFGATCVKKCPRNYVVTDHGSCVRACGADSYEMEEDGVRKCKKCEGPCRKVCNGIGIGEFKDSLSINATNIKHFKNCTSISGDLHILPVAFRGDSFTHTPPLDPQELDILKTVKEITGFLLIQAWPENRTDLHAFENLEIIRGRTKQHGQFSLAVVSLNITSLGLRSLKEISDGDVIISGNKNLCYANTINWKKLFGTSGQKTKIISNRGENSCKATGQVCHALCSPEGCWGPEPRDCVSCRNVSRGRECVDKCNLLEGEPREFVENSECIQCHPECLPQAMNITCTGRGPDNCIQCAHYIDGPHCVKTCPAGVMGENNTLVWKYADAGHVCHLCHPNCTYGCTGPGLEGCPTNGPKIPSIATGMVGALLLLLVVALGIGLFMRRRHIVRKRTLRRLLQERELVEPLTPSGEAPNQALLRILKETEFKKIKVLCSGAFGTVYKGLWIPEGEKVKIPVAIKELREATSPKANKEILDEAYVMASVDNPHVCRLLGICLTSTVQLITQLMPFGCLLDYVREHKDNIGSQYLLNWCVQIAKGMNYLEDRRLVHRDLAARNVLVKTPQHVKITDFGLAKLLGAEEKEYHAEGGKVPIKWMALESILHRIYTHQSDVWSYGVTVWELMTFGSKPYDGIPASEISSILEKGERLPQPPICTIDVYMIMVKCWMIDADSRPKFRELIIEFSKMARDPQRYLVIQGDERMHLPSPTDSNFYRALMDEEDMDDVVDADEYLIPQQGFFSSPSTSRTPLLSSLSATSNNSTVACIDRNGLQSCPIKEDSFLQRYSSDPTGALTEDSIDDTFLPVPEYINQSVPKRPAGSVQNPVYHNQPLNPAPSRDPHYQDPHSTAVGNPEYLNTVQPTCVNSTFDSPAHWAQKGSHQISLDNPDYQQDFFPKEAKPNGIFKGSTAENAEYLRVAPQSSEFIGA", "experiment": "KinomeScan", "format": "binding", "conditions": "1uM"}, "EPHB1": {"target": "T18, EPHB1 (Homo sapiens, UniProt P54762)", "T18 construct": "purchased DiscoveRx KINOMEscan", "experiment": "KinomeScan", "format": "binding", "conditions": "1uM"}, "EPHB4": {"target": "T19, EPHB4 (Homo sapiens, UniProt P54760)", "T19 construct": "purchased DiscoveRx KINOMEscan", "experiment": "KinomeScan", "format": "binding", "conditions": "1uM"}, "ERBB3": {"target": "T20, ERBB3 (Homo sapiens, UniProt P21860)", "T20 construct": "purchased DiscoveRx KINOMEscan", "experiment": "KinomeScan", "format": "binding", "conditions": "1uM"}, "FGFR4": {"target": "T21, FGFR4 (Homo sapiens, UniProt P22455)", "T21 construct": "purchased DiscoveRx KINOMEscan", "T21 sequence (P22455 22-802)": "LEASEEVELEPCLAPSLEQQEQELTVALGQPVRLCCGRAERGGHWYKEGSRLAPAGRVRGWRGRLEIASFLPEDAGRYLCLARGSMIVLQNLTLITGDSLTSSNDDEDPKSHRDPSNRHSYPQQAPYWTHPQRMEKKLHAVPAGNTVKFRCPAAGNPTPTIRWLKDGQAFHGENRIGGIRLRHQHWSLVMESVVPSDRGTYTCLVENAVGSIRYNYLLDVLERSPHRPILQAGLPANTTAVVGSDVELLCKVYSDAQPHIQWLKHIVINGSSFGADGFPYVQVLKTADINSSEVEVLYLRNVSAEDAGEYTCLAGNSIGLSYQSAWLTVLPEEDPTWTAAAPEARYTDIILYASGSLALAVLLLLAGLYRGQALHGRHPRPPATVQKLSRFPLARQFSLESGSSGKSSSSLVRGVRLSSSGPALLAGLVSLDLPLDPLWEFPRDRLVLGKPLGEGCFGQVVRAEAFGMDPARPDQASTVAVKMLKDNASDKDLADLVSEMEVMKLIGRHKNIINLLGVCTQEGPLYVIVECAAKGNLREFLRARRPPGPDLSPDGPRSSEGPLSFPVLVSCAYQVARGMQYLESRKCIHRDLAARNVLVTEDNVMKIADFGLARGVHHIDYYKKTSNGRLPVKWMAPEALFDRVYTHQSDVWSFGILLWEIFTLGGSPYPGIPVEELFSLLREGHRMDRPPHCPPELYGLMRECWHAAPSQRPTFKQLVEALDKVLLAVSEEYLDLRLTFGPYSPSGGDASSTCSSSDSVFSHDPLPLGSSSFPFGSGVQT", "experiment": "KinomeScan", "format": "binding", "conditions": "1uM"}, "GAK": {"target": "T22, GAK (Homo sapiens, UniProt O14976)", "T22 construct": "purchased DiscoveRx KINOMEscan", "experiment": "KinomeScan", "format": "binding", "conditions": "1uM"}, "IRAK4": {"target": "T23, IRAK4 (Homo sapiens, UniProt Q9NWZ3)", "T23 construct": "purchased DiscoveRx KINOMEscan", "experiment": "KinomeScan", "format": "binding", "conditions": "1uM"}, "KIT-autoinhibited": {"target": "T24, KIT-autoinhibited (Homo sapiens, UniProt P10721)", "T24 construct": "purchased DiscoveRx KINOMEscan", "experiment": "KinomeScan", "format": "binding", "conditions": "1uM"}, "LCK": {"target": "T25, LCK (Homo sapiens, UniProt P06239)", "T25 construct": "purchased DiscoveRx KINOMEscan", "experiment": "KinomeScan", "format": "binding", "conditions": "1uM"}, "MAK": {"target": "T26, MAK (Homo sapiens, UniProt P20794)", "T26 construct": "purchased DiscoveRx KINOMEscan", "experiment": "KinomeScan", "format": "binding", "conditions": "1uM"}, "MAPKAPK2": {"target": "T27, MAPKAPK2 (Homo sapiens, UniProt P49137)", "T27 construct": "purchased DiscoveRx KINOMEscan", "experiment": "KinomeScan", "format": "binding", "conditions": "1uM"}, "PCTK2": {"target": "T28, PCTK2 (Homo sapiens, UniProt Q00537)", "T28 construct": "purchased DiscoveRx KINOMEscan", "experiment": "KinomeScan", "format": "binding", "conditions": "1uM"}, "PIK3C2G": {"target": "T29, PIK3C2G (Homo sapiens, UniProt O75747)", "T29 construct": "purchased DiscoveRx KINOMEscan", "experiment": "KinomeScan", "format": "binding", "conditions": "1uM"}, "PIK3CA(M1043I)": {"target": "T30, PIK3CA(M1043I) (Homo sapiens, UniProt P42336, M1043I)", "T30 construct": "purchased DiscoveRx KINOMEscan", "experiment": "KinomeScan", "format": "binding", "conditions": "1uM"}, "PIM2": {"target": "T31, PIM2 (Homo sapiens, UniProt Q9P1W9)", "T31 construct": "purchased DiscoveRx KINOMEscan", "T31 sequence (Q9P1W9 whole entry)": "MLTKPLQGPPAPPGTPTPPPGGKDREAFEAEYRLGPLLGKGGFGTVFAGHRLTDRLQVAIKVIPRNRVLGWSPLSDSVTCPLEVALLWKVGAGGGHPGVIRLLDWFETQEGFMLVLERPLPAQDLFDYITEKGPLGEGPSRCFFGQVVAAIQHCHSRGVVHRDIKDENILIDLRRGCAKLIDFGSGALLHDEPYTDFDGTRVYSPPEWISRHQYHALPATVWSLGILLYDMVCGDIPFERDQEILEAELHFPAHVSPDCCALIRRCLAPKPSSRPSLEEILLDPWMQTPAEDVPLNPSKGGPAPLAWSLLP", "experiment": "KinomeScan", "format": "binding", "conditions": "1uM"}, "PLK1": {"target": "T32, PLK1 (Homo sapiens, UniProt P53350)", "T32 construct": "purchased DiscoveRx KINOMEscan", "experiment": "KinomeScan", "format": "binding", "conditions": "1uM"}, "RAF1": {"target": "T33, RAF1 (Homo sapiens, UniProt P04049)", "T33 construct": "purchased DiscoveRx KINOMEscan", "T33 sequence (P04049 whole entry)": "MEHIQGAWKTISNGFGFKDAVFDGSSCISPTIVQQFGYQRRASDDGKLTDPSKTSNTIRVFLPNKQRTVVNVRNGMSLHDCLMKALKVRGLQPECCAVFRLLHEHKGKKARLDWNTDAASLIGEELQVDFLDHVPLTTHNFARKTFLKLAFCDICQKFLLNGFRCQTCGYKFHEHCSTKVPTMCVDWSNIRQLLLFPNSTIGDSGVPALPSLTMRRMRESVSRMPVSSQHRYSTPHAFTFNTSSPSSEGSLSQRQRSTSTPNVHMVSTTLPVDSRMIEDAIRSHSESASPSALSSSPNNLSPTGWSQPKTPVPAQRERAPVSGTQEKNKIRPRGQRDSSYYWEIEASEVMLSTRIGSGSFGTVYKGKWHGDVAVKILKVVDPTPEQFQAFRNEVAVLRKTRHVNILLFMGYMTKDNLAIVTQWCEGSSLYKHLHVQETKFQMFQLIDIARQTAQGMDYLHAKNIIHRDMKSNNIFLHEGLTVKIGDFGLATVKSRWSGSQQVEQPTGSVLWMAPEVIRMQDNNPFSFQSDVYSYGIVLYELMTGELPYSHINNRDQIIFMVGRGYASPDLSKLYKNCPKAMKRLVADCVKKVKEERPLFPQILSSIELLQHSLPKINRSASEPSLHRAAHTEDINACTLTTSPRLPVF", "experiment": "KinomeScan", "format": "binding", "conditions": "1uM"}, "RIPK2": {"target": "T34, RIPK2 (Homo sapiens, UniProt O43353)", "T34 construct": "purchased DiscoveRx KINOMEscan", "experiment": "KinomeScan", "format": "binding", "conditions": "1uM"}, "ROS1": {"target": "T35, ROS1 (Homo sapiens, UniProt P08922)", "T35 construct": "purchased DiscoveRx KINOMEscan", "experiment": "KinomeScan", "format": "binding", "conditions": "1uM"}, "SBK1": {"target": "T36, SBK1 (Homo sapiens, UniProt Q52WX2)", "T36 construct": "purchased DiscoveRx KINOMEscan", "experiment": "KinomeScan", "format": "binding", "conditions": "1uM"}, "SRPK1": {"target": "T37, SRPK1 (Homo sapiens, UniProt Q96SB4)", "T37 construct": "purchased DiscoveRx KINOMEscan", "experiment": "KinomeScan", "format": "binding", "conditions": "1uM"}, "TNK2": {"target": "T38, TNK2 (Homo sapiens, UniProt Q07912)", "T38 construct": "purchased DiscoveRx KINOMEscan", "T38 sequence (Q07912 whole entry)": "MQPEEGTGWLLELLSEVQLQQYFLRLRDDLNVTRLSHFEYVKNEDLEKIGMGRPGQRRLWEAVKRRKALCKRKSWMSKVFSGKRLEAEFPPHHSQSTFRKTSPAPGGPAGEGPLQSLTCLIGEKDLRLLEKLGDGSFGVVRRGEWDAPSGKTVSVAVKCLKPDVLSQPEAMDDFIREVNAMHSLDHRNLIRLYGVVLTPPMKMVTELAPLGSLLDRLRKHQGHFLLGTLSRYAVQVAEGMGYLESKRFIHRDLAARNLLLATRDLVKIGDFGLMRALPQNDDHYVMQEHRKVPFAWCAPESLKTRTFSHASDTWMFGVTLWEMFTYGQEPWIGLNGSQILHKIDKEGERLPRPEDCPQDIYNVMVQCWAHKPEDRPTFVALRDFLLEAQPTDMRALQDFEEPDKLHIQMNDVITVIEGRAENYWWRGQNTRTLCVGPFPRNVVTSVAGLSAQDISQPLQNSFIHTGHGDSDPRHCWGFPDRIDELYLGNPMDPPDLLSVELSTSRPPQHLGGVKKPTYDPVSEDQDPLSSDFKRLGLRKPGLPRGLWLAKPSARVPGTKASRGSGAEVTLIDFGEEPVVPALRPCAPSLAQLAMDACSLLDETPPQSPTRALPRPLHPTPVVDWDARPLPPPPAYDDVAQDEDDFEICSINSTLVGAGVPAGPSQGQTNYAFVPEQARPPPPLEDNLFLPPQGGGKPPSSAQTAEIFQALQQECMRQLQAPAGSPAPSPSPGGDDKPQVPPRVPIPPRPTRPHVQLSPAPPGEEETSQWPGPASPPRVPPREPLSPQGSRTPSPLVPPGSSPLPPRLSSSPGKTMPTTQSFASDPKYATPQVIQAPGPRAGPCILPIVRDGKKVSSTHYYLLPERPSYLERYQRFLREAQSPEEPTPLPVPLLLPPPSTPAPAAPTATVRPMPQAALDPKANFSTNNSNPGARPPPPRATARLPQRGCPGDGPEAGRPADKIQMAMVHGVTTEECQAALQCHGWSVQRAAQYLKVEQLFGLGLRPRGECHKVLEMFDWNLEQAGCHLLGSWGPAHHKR", "experiment": "KinomeScan", "format": "binding", "conditions": "1uM"}, "TTK": {"target": "T39, TTK (Homo sapiens, UniProt P33981)", "T39 construct": "purchased DiscoveRx KINOMEscan", "T39 sequence (P33981 whole entry)": "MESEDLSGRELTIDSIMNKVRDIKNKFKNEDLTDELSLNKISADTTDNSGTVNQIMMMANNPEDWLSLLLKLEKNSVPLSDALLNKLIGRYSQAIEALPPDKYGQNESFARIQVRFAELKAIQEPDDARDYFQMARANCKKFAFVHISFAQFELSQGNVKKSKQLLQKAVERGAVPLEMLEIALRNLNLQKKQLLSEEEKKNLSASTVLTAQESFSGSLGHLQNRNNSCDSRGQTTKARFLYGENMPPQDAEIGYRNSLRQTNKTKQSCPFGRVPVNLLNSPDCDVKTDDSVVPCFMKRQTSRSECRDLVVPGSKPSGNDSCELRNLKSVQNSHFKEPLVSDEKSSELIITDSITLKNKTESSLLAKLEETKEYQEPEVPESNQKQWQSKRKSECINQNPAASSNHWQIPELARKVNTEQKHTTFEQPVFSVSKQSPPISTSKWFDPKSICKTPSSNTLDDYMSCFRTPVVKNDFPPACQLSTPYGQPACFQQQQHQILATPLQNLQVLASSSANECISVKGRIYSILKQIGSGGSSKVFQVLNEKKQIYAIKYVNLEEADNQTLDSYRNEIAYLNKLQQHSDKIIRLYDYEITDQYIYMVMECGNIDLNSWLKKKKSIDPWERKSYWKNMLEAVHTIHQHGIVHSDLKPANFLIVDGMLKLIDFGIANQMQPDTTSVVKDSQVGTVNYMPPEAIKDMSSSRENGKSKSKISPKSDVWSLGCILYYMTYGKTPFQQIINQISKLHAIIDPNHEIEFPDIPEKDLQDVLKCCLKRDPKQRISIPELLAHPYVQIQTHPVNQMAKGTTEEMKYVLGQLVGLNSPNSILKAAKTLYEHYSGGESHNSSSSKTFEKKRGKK", "experiment": "KinomeScan", "format": "binding", "conditions": "1uM"}, "VRK2": {"target": "T40, VRK2 (Homo sapiens, UniProt Q86Y07)", "T40 construct": "purchased DiscoveRx KINOMEscan", "experiment": "KinomeScan", "format": "binding", "conditions": "1uM"}, "YANK2": {"target": "T41, YANK2 (Homo sapiens, UniProt Q9NY57)", "T41 construct": "purchased DiscoveRx KINOMEscan", "experiment": "KinomeScan", "format": "binding", "conditions": "1uM"}, "PARP cleavage": {"tested_on": "PARP cleavage", "experiment": "Apoptosis (western-blot)", "format": "cell-based, human", "conditions": "within 12 hours", "text": "Then, apoptosis of MOLM13, HT, MEC-1 cells were detected by western-blot using PARP, GAPDH antibody (CST)."}, "PI3Kγ": {"target": "PI3Kγ (Mus musculus, UniProt Q9JHG7)", "experiment": "cell-based"}}}
{"smiles": "Cc1nc(NC(=O)[C@@H](N)C(C)C)sc1-c1cnc(Cl)c(NS(=O)(=O)c2ccccc2)c1", "note": "[PI3KD-IN-015]", "values": [{"measurement": "KinomeScan ABL1(F317I)-nonphosphorylated", "setting": "[1]", "value": 100}, {"measurement": "KinomeScan ABL1(F317L)-phosphorylated", "setting": "[2]", "value": 99}, {"measurement": "KinomeScan ABL1(T315I)-phosphorylated", "setting": "[3]", "value": 98}, {"measurement": "KinomeScan ABL1-nonphosphorylated", "setting": "ABL1-nonphosphorylated", "value": 100}, {"measurement": "KinomeScan ALK(L1196M)", "setting": "ALK(L1196M)", "value": 100}, {"measurement": "KinomeScan AMPK-alpha1", "setting": "AMPK-alpha1", "value": 100}, {"measurement": "KinomeScan ASK2", "setting": "ASK2", "value": 84}, {"measurement": "KinomeScan BRAF(V600E)", "setting": "BRAF(V600E)", "value": 100}, {"measurement": "KinomeScan CAMK2G", "setting": "CAMK2G", "value": 100}, {"measurement": "KinomeScan CAMKK2", "setting": "CAMKK2", "value": 96}, {"measurement": "KinomeScan CDK9", "setting": "CDK9", "value": 100}, {"measurement": "KinomeScan CSNK1A1", "setting": "CSNK1A1", "value": 100}, {"measurement": "KinomeScan CSNK1D", "setting": "CSNK1D", "value": 79}, {"measurement": "KinomeScan CSNK1G2", "setting": "CSNK1G2", "value": 100}, {"measurement": "KinomeScan CSNK1G3", "setting": "CSNK1G3", "value": 96}, {"measurement": "KinomeScan DAPK1", "setting": "DAPK1", "value": 98}, {"measurement": "KinomeScan EGFR(G719C)", "setting": "EGFR(G719C)", "value": 100}, {"measurement": "KinomeScan EPHB1", "setting": "EPHB1", "value": 100}, {"measurement": "KinomeScan EPHB4", "setting": "EPHB4", "value": 100}, {"measurement": "KinomeScan ERBB3", "setting": "ERBB3", "value": 100}, {"measurement": "KinomeScan FGFR4", "setting": "FGFR4", "value": 93}, {"measurement": "KinomeScan GAK", "setting": "GAK", "value": 100}, {"measurement": "KinomeScan IRAK4", "setting": "IRAK4", "value": 67}, {"measurement": "KinomeScan KIT-autoinhibited", "setting": "KIT-autoinhibited", "value": 100}, {"measurement": "KinomeScan LCK", "setting": "LCK", "value": 100}, {"measurement": "KinomeScan MAK", "setting": "MAK", "value": 72}, {"measurement": "KinomeScan MAPKAPK2", "setting": "MAPKAPK2", "value": 95}, {"measurement": "KinomeScan PCTK2", "setting": "PCTK2", "value": 100}, {"measurement": "KinomeScan PIK3C2G", "setting": "PIK3C2G", "value": 65}, {"measurement": "KinomeScan PIK3CA(M1043I)", "setting": "PIK3CA(M1043I)", "value": 0}, {"measurement": "KinomeScan PIM2", "setting": "PIM2", "value": 72}, {"measurement": "KinomeScan PLK1", "setting": "PLK1", "value": 90}, {"measurement": "KinomeScan RAF1", "setting": "RAF1", "value": 100}, {"measurement": "KinomeScan RIPK2", "setting": "RIPK2", "value": 98}, {"measurement": "KinomeScan ROS1", "setting": "ROS1", "value": 99}, {"measurement": "KinomeScan SBK1", "setting": "SBK1", "value": 66}, {"measurement": "KinomeScan SRPK1", "setting": "SRPK1", "value": 93}, {"measurement": "KinomeScan TNK2", "setting": "TNK2", "value": 100}, {"measurement": "KinomeScan TTK", "setting": "TTK", "value": 96}, {"measurement": "KinomeScan VRK2", "setting": "VRK2", "value": 91}, {"measurement": "KinomeScan YANK2", "setting": "YANK2", "value": 99}, {"measurement": "PARP cleavage (apoptosis)", "setting": "PARP cleavage; MEC-1 cell (CLL)", "value": "only weakly"}, {"measurement": "PARP cleavage (apoptosis)", "setting": "PARP cleavage; MOLM-13 cell (AML), HT cell (B-NHL)", "value": "apparent PARP cleavage"}, {"measurement": "EC50", "setting": "PI3Kγ", "value": "> 3", "unit": "µM"}]}
